Counter-ions that a name gives are not always drawn.
Columns and labels:
LD20 in the P388/0 test = format: in vivo, CD2-F1 mice; set-up: LD20: dose in mg/kg body weight; details: intraperitoneal, days 1, 5, 9, doses are on a mg/kg basis
Experimental: CD2-F1 mice, of the same sex, weighing 20±3 g, are used for this test. Control and test animals are injected intraperitoneally with a suspension of ~10^6 viable P388/0 tumor cells on day 0. In each test, several dose levels which bracket the LD20 of the compound are evaluated; each dose level group contains 6 animals. The test compounds are prepared either in physiologic saline containing 0.05% Tween 80 or distilled water containing 5% dextrose and are administered intraperitoneally on days 1, 5, and 9 relative to tumor implant. Doses are on a mg/kg basis according to individual animals' body weights. The day of death for each animal is recorded, the median identified for each group and the ratios of median survival time for treated (T)/control (C) groups are calculated. The criterion for activity is T/C×100≥120%.

[1] = tested on: Brugia pahangi microfilaria; assay: Screening against Brugia pahangi microfilaria (in vitro); format: cell-based
Text: Anthelmintic testing against Brugia pahangi was done using methods outlined in D. A. Denham et al., Transactions of the Royal Society of Tropical Medicine and Hygiene 73, 673-676 (1979).

[2] = tested on: Mycoplasma smegmatis (S3264); assay: Antibacterial screening, Mycoplasma smegmatis, agar dilution assay; format: cell-based
Text: (§1) Antibacterial testing against Mycoplasma smegmatis (S3264) and Streptococcus pyogens (CN10) was done with slight modifications using standard agar dilution assays as outlined in Manual of Clinical Microbiology, Second Ed., E. H. Lennette, E. H. Spaulding and J. P. Truant Eds., American Society for Microbiology, Washington, DC, 1974.

[3] = tested on: Nippostrongylus brasiliensis (Immature - free living stages); assay: Anthelmintic screening, Nippostrongylus brasiliensis; format: cell-based
Text: Anthelmintic testing against Nippostrongylus brasiliensis was done using methods as outlined in D. C. Jenkins, R. Armitage, and T. S. Carrington, Zetschrift fur Parasitenkunde 63, 261-269 (1980).

[4] = tested on: Streptococcus pyogenes (CN10); assay: Antibacterial testing, Streptococcus pyogenes, agar dilution assay; format: cell-based
Text: as §1

[5] = tested on: Candida albicans (CN1863); assay: Antifungal screening, Candida albicans, broth and agar dilution assays; format: cell-based; details: Medium: Wellcotest sensitivity test agar plus 7% lysed horse blood
Text: Antifungal testing against Candida albicans (CN1863) was done with slight modifications using a combination of broth and agar dilution assays as outlined in Laboratory Handbook of Medical Mycology, Chapter 6, pages 441-446, M. R. McGinnis, Academic Press, New York, NY, 1980.
Medium: Wellcotest* sensitivity test agar plus 7% lysed horse blood.

Trichomonas vaginalis = assay: Antiprotozoal testing, Trichomonas vaginalis (in vitro); format: cell-based; details: Stenton or Modified Diamond's medium, read-out: Result (screen code, inhibition); for inhibition at 40 µg/mL: 40 mg/L
Text: Antiprotozoal testing against Trichomonas vaginalis was done using methods outlined by R. M. Michaels in Advances in Chemotherapy, 3, 39-108 (1968).
(Stenton or Modified Diamond's medium)

LD50 Tests = details: in vivo; IP single dose - CD1 Male Mouse
Text: |(IP single dose - CD1 Male Mouse)

Eimeria tenella = assay: Antiprotozoal screening, Eimeria tenella (in vitro); format: cell-based; details: in vitro, read-out: Result (screen code, inhibition); for inhibition at 5 µg/mL: 5 mg/L
Text: Antiprotozoal testing against Eimeria tenella was done using methods outlined in V. S. Latter and D. Wilson, Parasitology 79, 169 (1979).

| SMILES | LD20 (LD20 in the P388/0 test) | MIC [2] [µg/mL] | MIC [3] [µg/mL] | MIC [4] [µg/mL] | MIC [5] [µg/mL] | also measured |
| --- | --- | --- | --- | --- | --- | --- |
| C[C@H](O)[C@@](C)(CO)NCc1ccc2ccc3cccc4ccc1c2c34 (relative stereo) [Example 20G, (+-)(2R*,3S*)-2-((1-Pyrenylmethyl)amino)-2-methyl-1,3-butanediol hydrochloride] | 125 |  |  |  |  |  |
| CC(C)(CO)NCc1ccc2ccc3cccc4ccc1c2c34 [Example 2B, 2-Methyl-2-((1-pyrenylmethyl)amino)propanol] | 450 |  |  |  |  |  |
| OCCCNCc1ccc2ccc3cccc4ccc1c2c34 [Example 3, 3-((1-pyrenylmethyl)amino)propanol hydrochloride] | 450 | < 5 | 1 | 10 | 30 | MIC [1]: 0.78 µg/mL; inhibition at 0.78 µg/mL ([1]; 0.78 mg/L, read-out: Result (screen code, inhibition)): 76 to 100%; inhibition at 6.25 µg/mL (Trichomonas vaginalis; 6.25 mg/L): 76 to 100% |
| CC(C)C(CO)NCc1ccc2ccc3cccc4ccc1c2c34 (stereo not shown) [Example 4, 3-Methyl-2-((1-pyrenylmethyl)amino)butanol hydrochloride] | 450 |  | 10 |  |  | inhibition at 12.5 µg/mL ([1]; 12.5 mg/L, read-out: Result (screen code, inhibition)): 26 to 50% |
| CC(CO)NCc1ccc2ccc3cccc4ccc1c2c34 (stereo not shown) [Example 7, 2-((1-Pyrenylmethyl)amino)propanol hydrochloride] | 600 | ≤ 5 |  |  | 50 |  |
| CC(O)CNCc1ccc2ccc3cccc4ccc1c2c34 (stereo not shown) [Example 8, 1-((1-pyrenylmethyl)amino)-2-propanol hydrochloride] | 600 | 10 |  |  | 50 |  |
| CCC(O)CNCc1ccc2ccc3cccc4ccc1c2c34 (stereo not shown) [Example 9, 1-((1-Pyrenylmethyl)amino)-2-butanol hydrochloride] |  | 10 | 50 | 10 | 10 | LD50 (LD50 Tests): 350 mg/kg; inhibition at 40 µg/mL (Trichomonas vaginalis): 26 to 50% |
| OCC(CO)NCc1ccc2ccc3cccc4ccc1c2c34 [Example 11, 2-((1-Pyrenylmethyl)amino)-1,3-propanediol hydrochloride] | 450 | 10 | ≥ 50 | 5 | 50 | LD50 (LD50 Tests): 250 mg/kg; inhibition at 40 µg/mL (Trichomonas vaginalis): 76 to 100%; inhibition at 5 µg/mL (Eimeria tenella): 76 to 100% |
| OCCNCc1ccc2ccc3cccc4ccc1c2c34 [Example 13, 2-((1-Pyrenylmethyl)amino)ethanol hydrochloride] | 220 | 5 | 50 | 5 | 10 | LD50 (LD50 Tests): 160 mg/kg; inhibition at 5 µg/mL (Eimeria tenella): 26 to 50% |
| CC(O)CCNCc1ccc2ccc3cccc4ccc1c2c34 (stereo not shown) [Example 14, 4-((1-Pyrenylmethyl)amino)-2-butanol hydrochloride] |  | 10 | 50 | ≤ 5 | 50 | LD50 (LD50 Tests): 130 mg/kg; inhibition at 0.31 µg/mL (Eimeria tenella; 0.31 mg/L): 26 to 50% |
| CC(=O)OCC(COC(C)=O)(COC(C)=O)NCc1ccc2ccc3cccc4ccc1c2c34 [Example 15, 2-Acetoxymethyl-1,3,-O-diacetyl-2-((1-pyrenylmethyl)amino)-1,3-propanediol] |  | ≤ 10 |  |  | > 50 | MTD (LD20 in the P388/0 test; mouse, in vivo, ip, read-out: highest nontoxic dose (LD20 column, values in parentheses; LD20 was not determined)): 500 mg/kg |
| CC(CO)(CO)NCc1cc2cccc3ccc4cccc1c4c32 [Example 19, 2-methyl-2-((4-pyrenylmethyl)amino)-1,3-propanediol hydrochloride.1/4H2 O] | 45 | 10 |  |  | 30 |  |
| CCOCC(CO)(CO)NCc1ccc2ccc3cccc4ccc1c2c34 [Example 21C, 2-Ethoxymethyl-2-((1-pyrenylmethyl)amino)-1,3-propanediol hydrochloride 1/3H2 O] | 225 |  |  |  |  |  |
| COCC(C)(CO)NCc1ccc2ccc3cccc4ccc1c2c34 (stereo not shown) [Example 22D, 3-methoxy-2-methyl-2-((1-pyrenylmethyl)amino)-1-propanol methanesulfonate.1/3H2 O] | 135 |  |  |  |  |  |
| O[C@@H]1CCC[C@H](O)[C@H]1NCc1ccc2ccc3cccc4ccc1c2c34 [Example 23B, (1α,2β,3α)-2-((1-Pyrenylmethyl)amino)-1,3-cyclohexanediolmethanesulfonate] | 180 |  |  |  |  |  |

From US4820873A, “Pyrene derivatives” (priority 1984, dated 1989)
